From patent US20210393734A1, “THERAPEUTIC AGENT FOR ARTHRITIS” (OSAKA UNIVERSITY, priority 2018, published 2021)
“Also recorded” adds a separate entry of the source.

What was measured:
[1] = test system: CX3CR1-positive HLA-DRhi cells from synovial fluid and articulation tissue of a rheumatoid arthritis patient; assay: Osteoclast differentiation of CX3CR1-positive HLA-DRhi cells of a rheumatoid arthritis patient; assay type: cell-based; conditions: human RA patient cells, 50 ng/ml M-CSF, 100 ng/ml RANKL, 0.5 μM thiostrepton, 96-well plate; FIG. 5B
Experimental: The photographs indicate that the osteoclast differentiation is inhibited by thiostrepton administration.
When these cells were collected by flow cytometry and cultured on a 96-well plate with 50 ng/ml M-CSF, 100 ng/ml RANKL, and 0.5 μM thiostrepton added.

[2] = test system: R3 cells (osteoclast precursor cells existing in an inflammatory synovial membrane); assay: Suppression of differentiation of R3 cells into osteoclasts (in vitro); assay type: cell-based, mouse; conditions: 10 ng/ml M-CSF, 100 ng/ml RANKL, 0.5, 1, or 2 μM thiostrepton, 96-well plate, FIG. 2
From the text: FIG. 2 is figures showing the effect of thiostrepton on the osteoclast differentiation of R3s (in vitro). Photographs indicate that osteoclast differentiation is suppressed by thiostrepton administration (reds show osteoclasts, and greens show precursor cells).
A) CD45-positive cells of blood and a synovial membrane of a collagen-induced arthritis model mouse (CIA model) were selected by flow cytometry, and the cell fractions were identified with the fluorescence of CX3CR1-EGFP and Ly6C-APC. A CX3CR1lowLy6Chi fraction in blood was defined as R1, a CX3CR1lowLy6Chi fraction in an inflammatory synovial membrane was defined as R2, and a CX3CR1hiLy6Cint fraction was defined as R3 (FIG. 1A).

[3] = test system: Collagen-induced arthritis (CIA) mice; assay: Effect in collagen-induced arthritis (CIA) model mouse (in vivo); design: species or system DBA-1/J mice; conditions: 20 mg/kg or 50 mg/kg intraperitoneally every other day from the twenty-first day, compared with the control group
Experimental: Collagen-induced arthritis (CIA) mice were divided into three groups, and 20 mg/kg or 50 mg/kg of thiostrepton or a base (contrast) was intraperitoneally administered every other day from the twenty-first day. Methods for producing and evaluating CIA mice are as follows.
Arthritis was caused using 8- to 10-week-old DBA-1/J mice. Chicken type II collagen was dissolved in a 0.05 M acetic acid solution and rotated at 4° C. all night to make a solution at a concentration of 4.0 mg/ml, and the solution was mixed with the same volume of Freund's complete adjuvant. On the first day, 100 μl of the emulsion was injected into the tail of each of the above-mentioned DBA-1/J mice for immunization, and the administration was repeated in the same way on the twenty-first day. The severity of arthritis was evaluated in accordance with a semi-quantitative score method which consists of an established 5-point scale. The scale is as follows: 0: no swelling, 1: slight swelling only in the heel or the tarsal bones, 2: slight swelling from the heel to the tarsal bones, 3: considerable swelling from the heel to the metatarsal articulation, and 4: severe swelling spreading over an area including the heel, the foot, and the toes. […]
Image analysis using micro-CT was performed. The osteoclastic score was determined with reference to previous study (refer to O'Brien, Arthritis Rheumatol. 2016).

C=C(NC(=O)C(=C)NC(=O)c1csc(C2=N[C@@H]3c4csc(n4)[C@H]4NC(=O)c5csc(n5)[C@H]([C@](C)(O)[C@@H](C)O)NC(=O)[C@H]5CSC(=N5)/C(=C/C)NC(=O)[C@H]([C@@H](C)O)NC(=O)c5csc(n5)[C@]3(CC2)NC(=O)[C@H](C)NC(=O)C(=C)NC(=O)[C@H](C)NC(=O)[C@H]([C@@H](C)CC)N[C@@H]2C=Cc3c([C@H](C)O)cc(nc3[C@H]2O)C(=O)O[C@@H]4C)n1)C(N)=O [thiostrepton]
differentiation into osteoclasts (number of nuclei contained in osteoclasts in one visual field) [1]: inhibited; also recorded: significantly suppressed | capability to differentiate into osteoclasts (number of nuclei contained in osteoclasts in one visual field) [2]: remarkably suppressed | arthritis score ([3]; FIG. 3A): decreased significantly | osteoclastic score imaged by micro-CT (erosion score) ([3]; FIG. 3B): decreased significantly
